The record followed here is patent publication US4599334A, “7-(3-aryl-1-piperazinyl)- and 7-(3-cyclohexyl-1-piperazinyl)-3-quinolonecarboxylic acid antibacterials” (Bayer Aktiengesellschaft, priority 1984, dated 1986).

Converted amounts (≈) assume the structure as drawn.

What all share (format): cell-based
Common to all, as to conditions: agar dilution test/isosensitest agar, unit assumed

One assay concerns E. coli Neumann. Kind of assay: MIC agar dilution test, E. coli Neumann. From the text:
(§1) It has already been disclosed in J. Med. Chem. 23, 1358 (1980) that 1-ethyl-6-fluoro-1,4-dihydro-4-oxo-7-(1-piperazinyl)-3-quinolinecarboxylicacid (norfloxacin) has antibacterial properties.
(§2) MIC values (agar dilution test/isosensitest agar)

In another assay the test system is Klebsiella 8085. As to the kind of experiment: MIC agar dilution test, Klebsiella 8085.
From the text: as §1, §2
A general note: In agar dilution, organisms are placed on agar that contains the substance at set levels.

The subject of a further assay is Klebsiella 6179. Kind of assay: MIC agar dilution test, Klebsiella 6179.
From the text: as §1, §2

The test system of a further assay is Klebsiella 57 USA. Kind of assay: MIC agar dilution test, Klebsiella 57 USA.
From the text: as §1, §2

A further assay relates to Providencia 12052. Kind of assay: MIC agar dilution test, Providencia 12052.
From the text: as §1, §2

For the next assay, the system named is Serratia 16040. As to the kind of experiment: MIC agar dilution test, Serratia 16040.
From the text: as §1, §2

A further assay has as its system Staphylococcus FK 422. As to the kind of experiment: MIC agar dilution test, Staphylococcus FK 422.
From the text: as §1, §2

Another assay has as its system Staphylococcus 1756. As to the kind of experiment: MIC agar dilution test, Staphylococcus 1756.
From the text: as §1, §2

The next assay concerns Staphylococcus 133. As to the kind of experiment: MIC agar dilution test, Staphylococcus 133.
From the text: as §1, §2

For the compound `O=C(O)c1cn(C2CC2)c2cc(N3CCNC(c4ccc(Cl)cc4)C3)c(F)cc2c1=O` (stereo not drawn) [Example 3], the MIC values against E. coli Neumann was 0.03 µg/mL (≈ 0.0679 µM); against Klebsiella 8085 it was 0.03 µg/mL (≈ 0.0679 µM); in the assay with Klebsiella 6179, 0.125 µg/mL (≈ 0.283 µM); with Klebsiella 57 USA, 0.5 µg/mL (≈ 1.13 µM); against Providencia 12052, 8 µg/mL (≈ 18.1 µM); with Serratia 16040, 16 µg/mL (≈ 36.2 µM). Moreover, the MIC values in the assay with Staphylococcus FK 422, against Staphylococcus 1756 and in the assay with Staphylococcus 133 was 0.06 µg/mL (≈ 0.136 µM) throughout.

With `COc1ccc(C2CN(c3cc4c(cc3F)c(=O)c(C(=O)O)cn4C3CC3)CCN2)cc1` (stereo not drawn) [Example 5], the MIC values against E. coli Neumann was 0.03 µg/mL (≈ 0.0686 µM); against Klebsiella 8085 it was 0.03 µg/mL (≈ 0.0686 µM); in the assay on Klebsiella 6179 it was 0.125 µg/mL (≈ 0.286 µM); against Klebsiella 57 USA, 0.5 µg/mL (≈ 1.14 µM); against Providencia 12052 it was 8 µg/mL (≈ 18.3 µM); with Serratia 16040 it was 16 µg/mL (≈ 36.6 µM). Also, the MIC values was 0.06 µg/mL (≈ 0.137 µM) with Staphylococcus FK 422, 0.03 µg/mL (≈ 0.0686 µM) with Staphylococcus 1756 and 0.06 µg/mL (≈ 0.137 µM) against Staphylococcus 133.

Consider `O=C(O)c1cn(C2CC2)c2cc(N3CCNC(c4ccc(F)cc4)C3)c(F)cc2c1=O` (stereo not drawn) [Example 2], for which the MIC values worked out at 0.015 µg/mL (≈ 0.0353 µM) against E. coli Neumann; 0.015 µg/mL (≈ 0.0353 µM) against Klebsiella 8085; 0.06 µg/mL (≈ 0.141 µM) against Klebsiella 6179; 0.25 µg/mL (≈ 0.588 µM) against Klebsiella 57 USA; 8 µg/mL (≈ 18.8 µM) with Providencia 12052; 16 µg/mL (≈ 37.6 µM) against Serratia 16040. Moreover, the MIC values in the assay with Staphylococcus FK 422 came to 0.03 µg/mL (≈ 0.0705 µM); in the assay with Staphylococcus 1756, 0.03 µg/mL (≈ 0.0705 µM); in the assay on Staphylococcus 133, 0.06 µg/mL (≈ 0.141 µM).

As for `O=C(O)c1cn(C2CC2)c2cc(N3CCNC(c4cccs4)C3)c(F)cc2c1=O` (stereo not drawn) [Example 12], the MIC values worked out at 0.015 µg/mL (≈ 0.0363 µM) against E. coli Neumann; 0.015 µg/mL (≈ 0.0363 µM) in the assay with Klebsiella 8085; 0.125 µg/mL (≈ 0.302 µM) in the assay on Klebsiella 6179; 0.5 µg/mL (≈ 1.21 µM) with Klebsiella 57 USA; 8 µg/mL (≈ 19.3 µM) with Providencia 12052; 16 µg/mL (≈ 38.7 µM) against Serratia 16040. For the same compound, the MIC values in the assay on Staphylococcus FK 422 was found to be 0.06 µg/mL (≈ 0.145 µM); with Staphylococcus 1756, 0.03 µg/mL (≈ 0.0726 µM); against Staphylococcus 133 it was 0.03 µg/mL (≈ 0.0726 µM).

In the case of `O=C(O)c1cn(C2CC2)c2cc(N3CCNC(c4ccccc4)C3)c(F)cc2c1=O` (stereo not drawn) [Example 1, 1-cyclopropyl-6-fluoro-1,4-dihydro-4-oxo-7-(3-phenyl-1-piperazinyl)-3-quinolinecarboxylic acid], the MIC values with E. coli Neumann is 0.015 µg/mL (≈ 0.0368 µM); against Klebsiella 8085, 0.015 µg/mL (≈ 0.0368 µM); against Klebsiella 6179 it was 0.015 µg/mL (≈ 0.0368 µM); in the assay with Klebsiella 57 USA, 0.06 µg/mL (≈ 0.147 µM); against Providencia 12052, 4 µg/mL (≈ 9.82 µM); with Serratia 16040, 8 µg/mL (≈ 19.6 µM). Further, the MIC values against Staphylococcus FK 422, with Staphylococcus 1756 and in the assay with Staphylococcus 133 was 0.015 µg/mL (≈ 0.0368 µM) in each case.

On to `Br.O=C(O)c1cn(C2CC2)c2cc(N3CCNC(c4ccc(O)cc4)C3)c(F)cc2c1=O` (stereo not drawn) [Example 14, 1-cyclopropyl-6-fluoro-1,4-dihydro-7-[3-(4-hydroxyphenyl)-1-piperazinyl]-4-oxo-3-quinolinecarboxylic acid hydrobromide], for which the MIC values against E. coli Neumann turned out to be 0.015 µg/mL; in the assay on Klebsiella 8085, 0.03 µg/mL; against Klebsiella 6179, 0.25 µg/mL; against Klebsiella 57 USA, 0.125 µg/mL; in the assay on Providencia 12052, 32 µg/mL; in the assay with Serratia 16040 it was 8 µg/mL. Besides, the figures for the MIC values against Staphylococcus FK 422, against Staphylococcus 1756 and in the assay with Staphylococcus 133 were 0.125 µg/mL, 0.5 µg/mL and 0.125 µg/mL, respectively.

Take `O=C(O)c1cn(C2CC2)c2cc(N3CCNC(c4ccc(N5CCCCC5)cc4)C3)c(F)cc2c1=O` (stereo not drawn) [Example 8]: the MIC values against Staphylococcus FK 422 came out at 0.015 µg/mL (≈ 0.0306 µM); in the assay with Staphylococcus 1756, 0.015 µg/mL (≈ 0.0306 µM); against Staphylococcus 133, 0.03 µg/mL (≈ 0.0612 µM).

For the compound `CCn1cc(C(=O)O)c(=O)c2cc(F)c(N3CCNCC3)cc21` [Norfloxacin, 1-ethyl-6-fluoro-1,4-dihydro-4-oxo-7-(1-piperazinyl)-3-quinolinecarboxylicacid, reference compound], the MIC values in the assay with E. coli Neumann was 0.125 µg/mL (≈ 0.391 µM); in the assay with Klebsiella 8085, 0.25 µg/mL (≈ 0.783 µM); with Klebsiella 6179, 1 µg/mL (≈ 3.13 µM); with Klebsiella 57 USA, 1 µg/mL (≈ 3.13 µM); against Providencia 12052 it was 128 µg/mL (≈ 401 µM); with Serratia 16040 it was 32 µg/mL (≈ 100 µM). The values for the MIC values with Staphylococcus FK 422, in the assay with Staphylococcus 1756 and in the assay with Staphylococcus 133 were 2 µg/mL (≈ 6.26 µM), 1 µg/mL (≈ 3.13 µM) and 1 µg/mL (≈ 3.13 µM), respectively.

As to `O=C(O)c1cn(C2CC2)c2c(F)c(N3CCNC(c4ccccc4)C3)c(F)cc2c1=O` (stereo not drawn) [Example 16, 1-cyclopropyl-6,8-difluoro-1,4-dihydro-4-oxo-7-(3-phenyl-1-piperazinyl)-3-quinolinecarboxylic acid], the MIC values in the assay with E. coli Neumann was determined as 0.015 µg/mL (≈ 0.0353 µM); in the assay on Klebsiella 8085, 0.015 µg/mL (≈ 0.0353 µM); in the assay on Klebsiella 6179, 0.015 µg/mL (≈ 0.0353 µM); in the assay on Klebsiella 57 USA it was 0.125 µg/mL (≈ 0.294 µM); against Providencia 12052, 4 µg/mL (≈ 9.4 µM); with Serratia 16040 it was 2 µg/mL (≈ 4.7 µM). For the same compound, the MIC values against Staphylococcus FK 422, against Staphylococcus 1756 and with Staphylococcus 133 was 0.015 µg/mL (≈ 0.0353 µM) each time.

Turning to `O=C(O)c1cn(C2CC2)c2cc(N3CCNC(c4cccc([N+](=O)[O-])c4)C3)c(F)cc2c1=O` (stereo not drawn) [Example 11], the MIC values with Staphylococcus FK 422 was 0.125 µg/mL (≈ 0.276 µM); in the assay with Staphylococcus 1756, 0.06 µg/mL (≈ 0.133 µM); against Staphylococcus 133, 0.06 µg/mL (≈ 0.133 µM).
